Assay in all cases: Post-emerge greenhouse herbicide test, phytotoxicity rating
Holding throughout (format): in vivo

Test [1] relates to velvetleaf (Abutilon theophrasti, ABUTH). To be noted: Abutilon theophrasti, post-emergence, 336 h, 14 days after application, scale 0-100; for pest or weed control at 63 g/ha: rate 63 g ai/ha; for pest or weed control at 500 g/ha: rate 500 g ai/ha. In short, it runs like this:
(§1)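 Compounds in acetone with 0.25% v/v non-ionic surfactant were track-sprayed at 187 l/ha over plants at the 2-3 leaf stage, at 63 to 1000 g ai/ha. Pots were bottom-watered. Injury was scored visually 14 days later on a 0-100 scale, where 0 is no damage and 100 is complete plant death.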

Test [2] relates to Johnsongrass (Sorghum halepense, SORHA). The conditions noted are these: Sorghum halepense, post-emergence, 336 h, 14 days after application, scale 0-100; for pest or weed control at 63 g/ha: rate 63 g ai/ha; for pest or weed control at 500 g/ha: rate 500 g ai/ha. In short, it runs like this: as §1
The test system of test [3] is barnyardgrass (Echinochloa crusgalli, ECHCG). The conditions noted are these: Echinochloa crus-galli, post-emergence, 336 h, 14 days after application, scale 0-100; for pest or weed control at 63 g/ha: rate 63 g ai/ha; for pest or weed control at 500 g/ha: rate 500 g ai/ha. In outline:
as §1

For `Nn1c(C(F)(F)F)cc(=O)n(-c2cc(Oc3ccc([N+](=O)[O-])cn3)c(Cl)cc2F)c1=O` [Compound 9-11, 1-Amino-3-[4-chloro-2-fluoro-5-(5-nitro-2-pyridyloxy)phenyl]-6-trifluoromethyl-1,2,3,4-tetrahydropyrimidine-2,4-dione], the pest or weed control at 63 g/ha in test [1] amounted to 100%; in test [2], 20%; in test [3] it was 0%. The pest or weed control at 500 g/ha in test [1] worked out at 100%; in test [2], 80%; in test [3], 50%.

`Nn1c(C(F)(F)F)cc(=O)n(-c2cc(Oc3ncccc3C(F)(F)F)c(Cl)cc2F)c1=O` [Compound 9-7, 1-Amino-3-[4-chloro-2-fluoro-5-(3-trifluoromethyl-2-pyridyloxy)phenyl]-6-trifluoromethyl-1,2,3,4-tetrahydropyrimidine-2,4-dione]: the pest or weed control at 63 g/ha in test [1] was 100%; in test [2], 80%; in test [3], 60%. The pest or weed control at 500 g/ha in test [1] was determined as 100%; in test [2], 90%; in test [3], 70%.

As for `Nn1c(C(F)(F)F)cc(=O)n(-c2cc(Oc3ccccc3C(F)(F)F)c(Cl)cc2F)c1=O` [Compound 9-24, 1-amino-3-[4-chloro-2-fluoro-5-(2-trifluoromethylphenoxy)phenyl]-6-trifluoromethyl-1,2,3,4-tetrahydropyrimidine-2,4-dione], the pest or weed control at 63 g/ha in test [1] was 100%; in test [2], 30%; in test [3], 30%. For the same compound, the pest or weed control at 500 g/ha in test [1] came out at 100%; in test [2], 70%; in test [3], 90%.

For the compound `Nn1c(C(F)(F)F)cc(=O)n(-c2cc(Oc3nccc(Cl)n3)c(Cl)cc2F)c1=O` [Compound 9-17, 1-Amino-3-[4-chloro-2-fluoro-5-(4-chloro-2-pyrimidyloxy)phenyl]-6-trifluoromethyl-1,2,3,4-tetrahydropyrimidine-2,4-dione], the pest or weed control at 63 g/ha in test [1] stood at 100%; in test [2] it was 0%; in test [3], 0%. In addition, the pest or weed control at 500 g/ha in test [1] came to 100%; in test [2], 80%; in test [3], 60%.

As to `Nn1c(C(F)(F)F)cc(=S)n(-c2cc(Oc3ccc(Cl)cn3)c(Cl)cc2F)c1=O` [Compound 9-28, 1-amino-3-[4-chloro-2-fluoro-5-(5-chloro-2-pyridyloxy)phenyl]-6-trifluoromethyl-1,2,3,4tetrahydro-2-oxo-4-thioxopyrimidine], the pest or weed control at 63 g/ha in test [1] stood at 90%; in test [2], 0%; in test [3] it was 0%. In addition, the pest or weed control at 500 g/ha in test [1] stood at 100%; in test [2], 30%; in test [3], 10%.

For the compound `N#Cc1ccc(Oc2cc(-n3c(=O)cc(C(F)(F)F)n(N)c3=O)c(F)cc2Cl)nc1` [Compound 9-10, 1-Amino-3-[4-chloro-2-fluoro-5-(5-cyano-2-pyridyloxy)phenyl]-6-trifluoromethyl-1,2,3,4-tetrahydropyrimidine-2,4-dione], the results for the pest or weed control at 63 g/ha in test [1], in test [2] and in test [3] were 100%, 60% and 20%, respectively. Further, the pest or weed control at 500 g/ha stood at 100% in test [1], 95% in test [2] and 95% in test [3].

The values are drawn from patent US6479435B1, “Diaryl ethers and processes for their preparation and herbicidal and desiccant compositions containing them” (ISK Americas Incorporated, priority 1997, dated 2002).
